From patent publication US8481051B2, “Cytotoxic T-cell epitope peptides that specifically attack epstein-barr virus-infected cells and uses thereof” (Medical and Biological Laboratories Co., Ltd., priority 2005, dated 2013)

Legend:
Format in all cases: cell-based, human
[1] = system: EBNA1-specific CTL clone B5; assay: IFNγ ELISPOT assay, CTL clone B5 with peptide-pulsed autologous CD40-B cells; conditions: for recognition of 20-mer overlapping peptide by clone B5: autologous CD40-B cells pulsed with 10 μg/mL peptide, FIG. 9
Procedure: (§1) ELISPOT assays were performed by a known method (Kuzushima K., et al., Blood, 101:1460-1468 (2003)). Specifically, CD8 T cells were co-cultured with various stimulators in wells of Multiscreen-HA plates (Millipore, Billerica, Mass.) coated with anti-human interferon-γ (IFNγ) monoclonal antibody (Pierce Biotechnology, Philadelphia, Pa.). As stimulators, (A) autologous EBNA1 mRNA-transduced CD40-B cells or non-transduced CD40-B cells and (B) autologous or allogenic LCLs (1×10^5 cells/well) were seeded into each well. For peptide titration assays and the overlapping peptide assay described below, serial concentrations of synthetic peptides were added to autologous CD40-B cells for one hour at room temperature.
(§2) After reacting with anti-human IFNγ rabbit polyclonal antibody (Pierce Biotechnology), followed by addition of peroxidase-labeled anti-rabbit immunoglobulin antibody (Genzyme, Cambridge, Mass.) and substrate, the plates were washed and dried. IFNγ spots were enumerated under a stereoscopic microscope.

[2] = system: LMP1-specific CTL clone H7; assay: IFNγ ELISPOT assay, CTL clone H7 with peptide-pulsed A0206-293T cells; conditions: for recognition by H7 in ELISPOT assay: A0206-293T cells pulsed with various concentrations of synthetic peptide, FIG. 2D
Procedure: ELISPOT assays were performed by known methods (Kuzushima K., et al., Blood, 94:3094-3100 (1999); Kondo E., et al., J. Immunol., 169:2164-2171 (2002); and Kuzushima K., et al., Blood, 98:1872-1881 (2001)). Specifically, CD8 T cells were co-cultured with various stimulators in wells of Multiscreen-HA plates (MAHA S4510; Millipore, Billerica, Mass., USA) coated with anti-human interferon-γ (IFNγ) monoclonal antibody (Pierce Biotechnology, Philadelphia, Pa., USA).
As stimulators, HLA-A*0206-positive or -negative LCLs (1×10^5 cells/well) or HLA-A*0206-expressing HEK-293T (A0206-293T) cells (5×10^4 cells/well) transfected with plasmids using Lipofectamin 2000 (Invitrogen) were seeded into each well 48 hour before T cell addition. For peptide titration assays, several concentrations of synthetic peptides (Greiner, Frickenhausen, Germany) were pulsed to A0206-293T cells for one hour at room temperature. After probing with […] (Pierce Biotechnology) and reacting with peroxidase-labeled anti-rabbit IgG antibody (Genzyme, Cambridge, Mass., USA) for spot visualization, the plates were washed and dried. IFNγ spots were enumerated using a stereoscopic microscope.

SNK-6 cells = assay: CTL assay (51Cr release) against SNK-6; conditions: SNK-6 pulsed with 100 nM epitope peptide; four-hour CTL assay; FIG. 5A
Procedure: Next, cytotoxic activities of H7 on LCLs were explored. CTL assays were conducted according to the following procedures. Target cells were labeled with 50 μCi chromium (^51Cr) for one and a half hours at 37° C., washed, and mixed with CTLs at the indicated effector:target ratios in 96-well plates. After incubation for 4 or 16 hours at 37° C., the radioactivity in the supernatants was counted with a γ-counter. The percentage of specific ^51Cr release was calculated as follows: 100×{(experimental release)−(spontaneous release)}/{(maximum release)−([…])}.

[3] = system: EBNA1-specific CTL clone C6; assay: IFNγ ELISPOT assay, CTL clone C6 with peptide-pulsed autologous CD40-B cells; conditions: autologous CD40-B cells pulsed with 10 μg/mL peptide; FIG. 9
Procedure: as §1, §2

In the case of “#38: 20-mer overlapping EBNA1 peptide (500-519)”, the “recognition of 20-mer overlapping peptide by clone B5” value [1] is reported as “recognized”.

“YLLEMLWRL [SEQ ID NO: 25, reference compound]” was tested, and the “IFNγ production by H7 with the peptide” value ([2]; data not shown) was “did not produce IFNγ”.

In the case of “I I I I L I I F I (IIIILIIFI) [SEQ ID NO: 1]”, the “recognition by H7 in ELISPOT assay” value [2] is reported as “recognized by H7” and the “lysis of epitope peptide-pulsed SNK-6 cells by H7” value (SNK-6 cells) is reported as “efficiently lysed”.

In the case of VYGGSKTSL [SEQ ID NO: 22], the “recognition by clone B5 in peptide titration” value ([1]; autologous CD40-B cells, serial dilutions of peptide, FIG. 10C) is reported as “not recognized even with much higher concentrations”.

In the case of “I I I L I I F I (IIILIIF) [SEQ ID NO: 18, LMP1 amino acid residues 64-71]”, the “recognition by H7 in ELISPOT assay” value [2] is reported as “only the 9-mer peptide was recognized by H7”.

In the case of “#24: 20-mer overlapping EBNA1 peptide (402-421)”, the “recognition of 20-mer overlapping peptide by clone C6” value [3] is reported as “recognized”.

“#39: 20-mer overlapping EBNA1 peptide (507-526)” was tested, and the “recognition of 20-mer overlapping peptide by clone B5” value [1] was “recognized”.
